The source of these data is patent publication US9771375B2, “Indazole compounds useful as ketohexokinase inhibitors” (JANSSEN PHARMACEUTICA NV, priority 2010, dated 2017).

Where a name gives a salt, the structure may show the parent alone.

As usually defined, the IC50 is the midpoint of a concentration-inhibition curve. The low end stands for greater potency, the high end for weaker potency.

In the assay the target is KHK (Homo sapiens (Human), UniProt P50053). Kind of assay: In Vitro KHK Enzyme Assay (HTMS detection of fructose-1-P). The class given is biochemical. The note with it: 100 μM ATP, 2 nM KHK, 60 min at 25° C., 12-point dose-response.
Sequence of KHK (P50053 whole entry): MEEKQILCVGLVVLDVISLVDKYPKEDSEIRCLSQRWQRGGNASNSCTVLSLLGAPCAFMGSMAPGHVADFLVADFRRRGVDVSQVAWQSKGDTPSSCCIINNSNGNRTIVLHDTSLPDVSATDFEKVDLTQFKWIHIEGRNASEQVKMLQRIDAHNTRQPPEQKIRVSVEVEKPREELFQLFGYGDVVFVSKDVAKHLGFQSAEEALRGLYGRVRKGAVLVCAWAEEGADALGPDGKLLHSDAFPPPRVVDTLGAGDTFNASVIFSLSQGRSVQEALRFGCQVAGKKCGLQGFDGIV

Description: An enzymatic assay was developed to measure KHK-mediated conversion of D-fructose to Fructose-1-P (F-1-P) using High Throughput Mass Spectroscopy (HTMS) as a means of product detection. This assay served as a primary screen to evaluate the ability to inhibit KHK enzyme activity and it has been adapted to high throughput mass spectrometry (HTMS, BioTrove RapidFire™) format for higher throughput.
The compounds to be tested were dosed in 12-points concentration from 511 μM to 0.5 μM. […] The assay was carried out in 384-well plate format.

Take `Cc1nn(-c2ccccc2)c2cc(N3CCC(N4CCNCC4)CC3)ccc12` [Compound 57, 3-Methyl-1-phenyl-6-(4-piperazin-1-yl-piperidin-1-yl)-1H-indazole hydrochloride]: the IC50 came to 3.2 µM.
